Like-named read-outs stand apart in the source and are kept apart here. Starred links: 1 amine or outer side, 2 acyl side, 3 side chain; linkers in the order of their positions; H or OH if unused. Non-standard residues stand in square brackets, D forms with d. Residues, ends and D or L forms follow the SMILES beside them. Groups on a side chain read outwards from the residue. *: point of attachment. C18 diacid = O=C(O)CCCCCCCCCCCCCCCCC(=O)*; γGlu = O=C(O)[C@H](CCC(=O)[*:2])N[*:1]; AEEA = NCCOCCOCC(=O)O; Aib = CC(C)(N)C(=O)O
How the values were obtained:
rat CRF2R α receptor = test: cAMP agonism at rat CRF2R α receptor in A7R5 rat aortic smooth muscle cells (Example 8); assay type: cell-based; conditions: cAMP HTRF, A7R5 rat aortic smooth muscle cell line, 0% HSA
In short: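 Potency (EC50) is the concentration reaching half-maximal activation, with responses scaled so that 1000 nM urocortin 2 equals 100%. Intracellular cAMP was quantified by homogeneous time-resolved fluorescence at 665/620 nm, 1 h after lysis-buffer reagents. Compound stimulation lasted 30 min at room temperature on 2000 IBMX-treated (2 mM) cells per well in HEPES-buffered HBSS.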

[1] = Solubility in buffer systems by UPLC-UV (Example 13); assay type: physicochemical
In short: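 Quantitation used UV peak area from UPLC of the 1:10-diluted supernatant, set against a reference-compound standard curve with extinction coefficients adjusted for amino acid sequence.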

CRF1R receptor = target: T1, CRF1R receptor (Homo sapiens, UniProt P34998); test: cAMP activity at anti-target CRF1R, CRF1R-overexpression CHO cell line (Example 9); assay type: cell-based; conditions: CRF1R-overexpression CHO cell line; for EC50: 0% HSA; for Emax: read-out: Emax (%)
T1 construct: host or cells: CHO-K1 clone 2
T1 sequence (P34998 24-415): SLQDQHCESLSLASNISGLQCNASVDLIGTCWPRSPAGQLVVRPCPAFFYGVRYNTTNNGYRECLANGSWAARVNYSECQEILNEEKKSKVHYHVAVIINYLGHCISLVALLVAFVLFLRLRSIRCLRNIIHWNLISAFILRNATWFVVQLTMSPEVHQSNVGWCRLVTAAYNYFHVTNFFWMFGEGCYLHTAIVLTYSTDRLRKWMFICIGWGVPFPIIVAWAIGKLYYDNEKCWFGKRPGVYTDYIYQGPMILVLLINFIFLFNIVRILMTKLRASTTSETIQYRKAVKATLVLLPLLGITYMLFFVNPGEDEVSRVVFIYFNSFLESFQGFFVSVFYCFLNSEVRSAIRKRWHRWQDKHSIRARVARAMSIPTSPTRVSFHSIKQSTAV
In short: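 Using thawed CRF1R-overexpressing CHO cells at 2000 per well, compound is applied for 30 min at RT in HBSS/HEPES buffer with IBMX. Cellular cAMP content is determined via HTRF, and percent activity is calculated against 1000 nM UCN2 defined as 100%.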

human CRF2α receptor = target: T2, human CRF2α receptor (Homo sapiens, UniProt Q13324); test: cAMP agonism at human CRF2 α receptor in TeloHEAC cells (Example 7); assay type: cell-based; conditions: cAMP HTRF, TeloHEAC cells stably expressing human CRF2 α
T2 construct: expressed in transfected cells; host or cells: TeloHEAC
T2 sequence (Q13324 1-411): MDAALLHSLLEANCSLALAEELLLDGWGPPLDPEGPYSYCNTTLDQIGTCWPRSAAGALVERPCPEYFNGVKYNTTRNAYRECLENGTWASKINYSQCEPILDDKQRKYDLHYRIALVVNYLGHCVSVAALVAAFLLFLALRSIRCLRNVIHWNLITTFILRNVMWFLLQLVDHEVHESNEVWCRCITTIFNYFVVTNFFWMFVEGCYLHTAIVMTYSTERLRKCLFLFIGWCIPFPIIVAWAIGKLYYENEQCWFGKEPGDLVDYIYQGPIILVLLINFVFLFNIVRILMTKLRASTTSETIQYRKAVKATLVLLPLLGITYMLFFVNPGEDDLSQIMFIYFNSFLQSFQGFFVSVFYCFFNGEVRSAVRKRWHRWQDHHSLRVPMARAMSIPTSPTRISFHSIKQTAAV
In short: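 HTRF ratio 665/620 nm, read 1 h after lysis reagents, reports cAMP. Cells: thawed stocks, 2000/well, 30 min RT with compound in HBSS, 20 mM HEPES, 0 or 0.1% HSA, 2 mM IBMX. Activity normalised to UCN2 1000 nM = 100%; EC50 from half-maximal activation.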

[2] = Physical stability, Thioflavin T fibrillation assay (Example 14); assay type: physicochemical; conditions: 3 mg/ml, 37° C. shaking
Method: The physical stability of the compounds was assessed using a Thioflavin T (ThT) assay.
The time course for fibril formation often follows the characteristic shape of a sigmoidal curve and can be separated into three regions: a lag phase, a fast growth phase, and a plateau phase. The typical fibril formation process starts with the lag phase in which the amount of partially folded peptide turned into fibrils is not significant enough to be detected. The lag-time corresponds to the time the critical mass of the nucleus is built. Afterwards, a drastic elongation phase follows and fibril concentration increases rapidly. Therefore, by measuring the increase in fluorescence intensity attributable to ThT as well as the lag time of the increase, the fibrillation tendency of a peptide can be determined, thereby providing a measure of the physical stability of the peptide.
In the present study, test compounds were diluted in buffer to a final concentration of 3 mg/ml.
The fibrillation tendencies of the peptides were determined under stress using a Fluoroskan Ascent FL or Fluoroskan Ascent fluorometer. […] Plates were sealed with Scotch Tape (Quiagen). Samples were stressed by continuous cycles of 10 s shaking at 960 rpm and 50 s rest period at 37° C. Fibril development was monitored by measuring fluorescence intensity every 20 minutes. For each sample, eight replicates were tested.

[3] = pH 7.4, Solubility in Buffer C [mg/ml]
[4] = 0% HSA, read-out: EC50 [nM], 0% HSA
[5] = Buffer A: 100 mM acetate buffer, pH 4.5
[6] = Buffer B: 100 mM acetate buffer, pH 4.5, 2.7 mg/ml m-cresol

Row | Structure (SMILES) | EC50 (rat CRF2R α receptor) | solubility at 1 h ([1]; pH 4.5, Solubility in Buffer B [mg/ml]) | solubility at 1 h [1, 3] | EC50 (CRF1R receptor) | Emax (CRF1R receptor) | EC50 (human CRF2α receptor; [4]) | Increase in FI (fluorescence intensity) [2, 5] | Lag time [2, 5] | Increase in FI (fluorescence intensity) [2, 6] | Lag time [2, 6] | EC50 (human CRF2α receptor; 0.1% HSA, read-out: EC50 [nM], 0.1% HSA)
1 | CC[C@H](C)[C@H](N)C(=O)N[C@H](C(=O)N[C@@H](CC(C)C)C(=O)N[C@@H](CO)C(=O)N[C@@H](CC(C)C)C(=O)N[C@@H](CC(=O)O)C(=O)N[C@H](C(=O)N1CCC[C@H]1C(=O)N[C@H](C(=O)N[C@@H](CCCCN)C(=O)N[C@@H](CC(C)C)C(=O)N[C@@H](CCCCNC(=O)COCCOCCNC(=O)COCCOCCNC(=O)CC[C@H](NC(=O)CCCCCCCCCCCCCCCCC(=O)O)C(=O)O)C(=O)N[C@@H](CCC(N)=O)C(=O)N[C@H](C(=O)N[C@@H](CC(C)C)C(=O)N[C@@H](CC(C)C)C(=O)N[C@@H](CCCCN)C(=O)N[C@@H](CCC(N)=O)C(=O)N[C@@H](CCC(=O)O)C(=O)N[C@@H](CCCNC(=N)N)C(=O)N[C@@H](CCC(N)=O)C(=O)N[C@@H](CCCCN)C(=O)N[C@@H](CCCCN)C(=O)N[C@@H](CCC(N)=O)C(=O)N[C@@H](CCCNC(=N)N)C(=O)N[C@@H](CCC(N)=O)C(=O)N[C@@H](CCC(N)=O)C(=O)N[C@@H](C)C(=O)N[C@@H](CCC(=O)O)C(=O)N[C@H](C(=O)N[C@@H](CC(N)=O)C(=O)NC(C)(C)C(=O)N[C@@H](CCC(N)=O)C(=O)N[C@H](C(=O)N[C@@H](CC(C)C)C(=O)N[C@@H](C)C(=O)N[C@@H](CCC(N)=O)C(=O)N[C@H](C(N)=O)C(C)C)[C@@H](C)CC)[C@@H](C)O)[C@@H](C)CC)[C@@H](C)CC)C(C)C)C(C)C [compound 75] (H-IVLSLDVPIKLK([AEEA-AEEA-γGlu-C18 diacid])QILLKQERQKKQRQQAETN[Aib]QILAQV-NH2) | 1.71 nM | > 9000 µg/mL | > 7900 µg/mL | > 1000 nM | 2.7% | 0.48 nM | No | >45 h | No | >45 h | 
2 | CC[C@H](C)[C@H](NC(=O)[C@H](CCC(N)=O)NC(=O)[C@H](CCCCNC(=O)COCCOCCNC(=O)COCCOCCNC(=O)CC[C@H](NC(=O)CCCCCCCCCCCCCCCCC(=O)O)C(=O)O)NC(=O)[C@H](CC(C)C)NC(=O)[C@H](CCCCN)NC(=O)[C@@H](NC(=O)[C@@H]1CCCN1C(=O)[C@@H](NC(=O)[C@H](CC(=O)O)NC(=O)[C@H](CC(C)C)NC(=O)[C@H](CO)NC(=O)[C@H](CC(C)C)NC(=O)[C@@H](NC(=O)[C@@H](N)Cc1ccccc1)[C@@H](C)O)C(C)C)[C@@H](C)CC)C(=O)N[C@@H](CC(C)C)C(=O)N[C@@H](CC(C)C)C(=O)N[C@@H](CCCCN)C(=O)N[C@@H](CCC(N)=O)C(=O)N[C@@H](CCC(=O)O)C(=O)N[C@@H](CCCNC(=N)N)C(=O)N[C@@H](CCC(N)=O)C(=O)N[C@@H](CCCCN)C(=O)N[C@@H](CCCCN)C(=O)N[C@@H](CCC(N)=O)C(=O)N[C@@H](CCCNC(=N)N)C(=O)N[C@@H](CCC(N)=O)C(=O)N[C@@H](CCCCN)C(=O)N[C@@H](C)C(=O)N[C@@H](CCCCN)C(=O)N[C@@H](CCCCN)C(=O)N[C@@H](CC(N)=O)C(=O)N[C@@H](CCCCN)C(=O)N[C@@H](CCC(N)=O)C(=O)N[C@H](C(=O)N[C@@H](CC(C)C)C(=O)N[C@@H](CCC(=O)O)C(=O)N[C@@H](CCCNC(=N)N)C(=O)N[C@H](C(N)=O)C(C)C)[C@@H](C)CC [compound 146] (H-FTLSLDVPIKLK([AEEA-AEEA-γGlu-C18 diacid])QILLKQERQKKQRQKAKKNKQILERV-NH2; N-terminus assumed) | 0.22 nM |  | > 8800 µg/mL | > 1000 nM | 1.03% | 0.11 nM | No | >45 h | No | >45 h | 4.36 nM

Source: patent US12679878B2, “CRF2 receptor agonists and their use in therapy” (SANOFI, priority 2020, dated 2026)
